ChEMBL document CHEMBL4507276 (2021)

Assays:
[1] = target: Dual specificity tyrosine-phosphorylation-regulated kinase 3 (Homo sapiens) (UniProt O43781); test: DYRK3 Invitrogen selectivity data (BI); conditions: Compound concentration 3.0 uM
[2] = target: Nitric oxide synthase, inducible (Mus musculus) (UniProt P29477); test: INDUC_NOS Cerep selectivity data (BI); conditions: Compound concentration 20.0 uM
[3] = target: 5-hydroxytryptamine receptor 1B (Rattus norvegicus) (UniProt P28564); test: 5HT1B/R Cerep selectivity data (BI); conditions: Compound concentration 20.0 uM
[4] = target: P2X purinoceptor (Oryctolagus cuniculus) (UniProt G1U3D6); test: P2X/RB Eurofins-Panlabs selectivity data (BI); conditions: Compound concentration 10.0 uM
P2X purinoceptor (Oryctolagus cuniculus), sequence (G1U3D6 as listed by the source): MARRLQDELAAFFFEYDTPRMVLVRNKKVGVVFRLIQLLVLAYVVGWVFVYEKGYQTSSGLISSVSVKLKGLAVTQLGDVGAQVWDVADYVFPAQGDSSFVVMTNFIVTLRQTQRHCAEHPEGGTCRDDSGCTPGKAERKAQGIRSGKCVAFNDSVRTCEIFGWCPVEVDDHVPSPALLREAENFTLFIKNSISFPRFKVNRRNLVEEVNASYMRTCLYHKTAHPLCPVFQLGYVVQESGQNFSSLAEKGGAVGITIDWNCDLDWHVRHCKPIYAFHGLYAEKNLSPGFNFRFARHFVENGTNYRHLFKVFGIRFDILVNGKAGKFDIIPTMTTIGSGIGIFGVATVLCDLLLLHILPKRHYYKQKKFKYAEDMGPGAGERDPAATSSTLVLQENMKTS

[5] = target: T1, Dual specificity mitogen-activated protein kinase kinase 6 (Homo sapiens) (UniProt P52564); test: MAP2K6 Invitrogen selectivity data (BI); conditions: Compound concentration 3.0 uM
T1 sequence (whole entry): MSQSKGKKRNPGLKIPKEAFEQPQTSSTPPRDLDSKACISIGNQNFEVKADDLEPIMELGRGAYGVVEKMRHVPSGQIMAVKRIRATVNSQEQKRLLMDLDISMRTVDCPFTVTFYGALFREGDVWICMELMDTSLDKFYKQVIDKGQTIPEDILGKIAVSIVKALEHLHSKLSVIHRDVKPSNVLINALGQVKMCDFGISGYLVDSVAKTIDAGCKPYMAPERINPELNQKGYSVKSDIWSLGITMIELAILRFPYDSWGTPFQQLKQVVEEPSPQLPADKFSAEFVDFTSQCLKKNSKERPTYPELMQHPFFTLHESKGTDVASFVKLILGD

[6] = target: Mitogen-activated protein kinase 1 (Homo sapiens) (UniProt P28482); test: ERK2(P42MAPK)_CE Cerep selectivity data (BI); conditions: Compound concentration 20.0 uM
Mitogen-activated protein kinase 1 (Homo sapiens), sequence (P28482 whole entry): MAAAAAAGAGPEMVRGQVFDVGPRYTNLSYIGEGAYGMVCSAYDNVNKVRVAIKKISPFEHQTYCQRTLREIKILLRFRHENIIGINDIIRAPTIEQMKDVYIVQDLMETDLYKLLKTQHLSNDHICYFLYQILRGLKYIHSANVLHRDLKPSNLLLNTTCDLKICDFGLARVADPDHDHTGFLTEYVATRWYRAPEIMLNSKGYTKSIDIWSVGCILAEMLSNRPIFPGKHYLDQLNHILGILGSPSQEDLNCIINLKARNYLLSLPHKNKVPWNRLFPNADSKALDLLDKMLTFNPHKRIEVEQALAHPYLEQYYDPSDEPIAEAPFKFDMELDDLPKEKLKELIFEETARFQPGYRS

[7] = target: STE20-like serine/threonine-protein kinase (Homo sapiens) (UniProt Q9H2G2); test: SLK Invitrogen selectivity data (BI); conditions: Compound concentration 3.0 uM
STE20-like serine/threonine-protein kinase (Homo sapiens), sequence (Q9H2G2 whole entry, looked up, the tested form may be a part): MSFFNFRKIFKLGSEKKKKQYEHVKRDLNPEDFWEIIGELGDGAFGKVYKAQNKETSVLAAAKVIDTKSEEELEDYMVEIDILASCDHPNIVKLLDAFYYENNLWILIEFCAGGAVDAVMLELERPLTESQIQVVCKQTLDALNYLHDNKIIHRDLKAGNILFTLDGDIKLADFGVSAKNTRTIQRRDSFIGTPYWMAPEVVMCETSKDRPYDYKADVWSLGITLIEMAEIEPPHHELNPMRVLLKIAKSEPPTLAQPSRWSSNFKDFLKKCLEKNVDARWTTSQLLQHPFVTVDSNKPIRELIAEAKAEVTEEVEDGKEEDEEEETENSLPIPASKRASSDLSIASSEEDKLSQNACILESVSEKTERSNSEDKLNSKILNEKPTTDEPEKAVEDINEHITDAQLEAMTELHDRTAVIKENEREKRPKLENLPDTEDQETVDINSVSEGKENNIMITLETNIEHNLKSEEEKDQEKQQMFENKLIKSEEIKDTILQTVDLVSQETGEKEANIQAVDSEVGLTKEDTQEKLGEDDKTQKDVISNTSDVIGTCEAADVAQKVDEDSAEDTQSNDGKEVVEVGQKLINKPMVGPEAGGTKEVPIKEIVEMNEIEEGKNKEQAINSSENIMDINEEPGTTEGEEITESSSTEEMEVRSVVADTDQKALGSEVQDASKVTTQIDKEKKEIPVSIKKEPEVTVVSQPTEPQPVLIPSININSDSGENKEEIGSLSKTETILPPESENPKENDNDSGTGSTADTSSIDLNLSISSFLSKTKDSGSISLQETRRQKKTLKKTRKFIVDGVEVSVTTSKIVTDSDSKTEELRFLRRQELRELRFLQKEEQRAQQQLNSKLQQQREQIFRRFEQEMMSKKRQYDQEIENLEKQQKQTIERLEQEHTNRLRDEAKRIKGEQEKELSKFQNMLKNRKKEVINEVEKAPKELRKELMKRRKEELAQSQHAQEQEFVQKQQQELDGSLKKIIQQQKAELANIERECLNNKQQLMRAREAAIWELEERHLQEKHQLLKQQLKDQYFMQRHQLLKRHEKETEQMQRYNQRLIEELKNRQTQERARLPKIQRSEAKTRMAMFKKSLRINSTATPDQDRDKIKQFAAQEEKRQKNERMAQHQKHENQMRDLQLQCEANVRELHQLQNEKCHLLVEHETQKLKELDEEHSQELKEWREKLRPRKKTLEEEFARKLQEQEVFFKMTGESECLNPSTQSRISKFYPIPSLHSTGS

[8] = target: PAS domain-containing serine/threonine-protein kinase (Homo sapiens) (UniProt Q96RG2); test: PASK Invitrogen selectivity data (BI); conditions: Compound concentration 3.0 uM
[9] = target: T2, Serine/threonine-protein kinase D3 (Homo sapiens) (UniProt O94806); test: PRKCN Invitrogen selectivity data (BI); conditions: Compound concentration 3.0 uM
T2 sequence (whole entry): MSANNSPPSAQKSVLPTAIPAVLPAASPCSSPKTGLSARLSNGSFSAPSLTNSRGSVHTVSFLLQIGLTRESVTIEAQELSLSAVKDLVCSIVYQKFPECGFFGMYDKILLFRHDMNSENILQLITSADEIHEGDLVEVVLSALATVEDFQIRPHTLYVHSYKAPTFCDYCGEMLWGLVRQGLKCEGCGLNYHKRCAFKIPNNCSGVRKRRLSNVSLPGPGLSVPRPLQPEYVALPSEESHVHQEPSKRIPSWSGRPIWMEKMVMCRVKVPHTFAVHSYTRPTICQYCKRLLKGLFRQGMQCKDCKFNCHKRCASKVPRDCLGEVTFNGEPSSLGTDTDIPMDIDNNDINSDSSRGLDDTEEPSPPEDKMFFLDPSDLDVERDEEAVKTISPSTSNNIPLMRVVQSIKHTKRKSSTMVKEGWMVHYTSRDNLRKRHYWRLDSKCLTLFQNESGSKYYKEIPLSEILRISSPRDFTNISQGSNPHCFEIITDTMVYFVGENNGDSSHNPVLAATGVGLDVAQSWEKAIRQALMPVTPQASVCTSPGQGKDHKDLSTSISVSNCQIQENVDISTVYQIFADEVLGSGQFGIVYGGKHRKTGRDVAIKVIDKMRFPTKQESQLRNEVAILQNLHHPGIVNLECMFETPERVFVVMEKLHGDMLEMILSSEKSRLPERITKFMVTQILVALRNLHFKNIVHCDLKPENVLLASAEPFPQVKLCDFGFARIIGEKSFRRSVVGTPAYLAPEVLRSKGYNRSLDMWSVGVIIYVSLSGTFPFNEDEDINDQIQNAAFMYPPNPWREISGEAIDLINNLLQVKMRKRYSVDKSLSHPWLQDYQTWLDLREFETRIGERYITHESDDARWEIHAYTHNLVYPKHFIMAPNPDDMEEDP

[10] = target: RAC-gamma serine/threonine-protein kinase (Homo sapiens) (UniProt Q9Y243); test: AKT3 Invitrogen selectivity data (BI); conditions: Compound concentration 3.0 uM
RAC-gamma serine/threonine-protein kinase (Homo sapiens), sequence (Q9Y243 whole entry): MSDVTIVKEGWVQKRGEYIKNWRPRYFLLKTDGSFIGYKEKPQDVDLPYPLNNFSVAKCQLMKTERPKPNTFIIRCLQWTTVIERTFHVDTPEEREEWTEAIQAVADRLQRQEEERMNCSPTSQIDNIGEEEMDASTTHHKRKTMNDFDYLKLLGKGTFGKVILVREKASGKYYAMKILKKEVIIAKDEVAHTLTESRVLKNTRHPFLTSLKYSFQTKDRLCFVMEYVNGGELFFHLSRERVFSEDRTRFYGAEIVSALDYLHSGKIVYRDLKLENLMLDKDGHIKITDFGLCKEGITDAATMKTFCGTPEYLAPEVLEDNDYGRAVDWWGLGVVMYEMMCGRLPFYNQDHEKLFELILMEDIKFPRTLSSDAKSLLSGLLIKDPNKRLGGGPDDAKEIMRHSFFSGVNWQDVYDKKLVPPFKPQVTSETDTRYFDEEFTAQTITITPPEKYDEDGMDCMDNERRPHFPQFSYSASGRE

[11] = target: Androgen receptor (Homo sapiens) (UniProt P10275); test: ANDROGEN/H Cerep selectivity data (BI); conditions: Compound concentration 20.0 uM
[12] = target: Ribosomal protein S6 kinase beta-1 (Homo sapiens) (UniProt P23443); test: RPS6KB1 Invitrogen selectivity data (BI); conditions: Compound concentration 3.0 uM
[13] = system: Epidermal growth factor receptor (Homo sapiens), P00533 [L858R]; test: EGFR L858R Invitrogen selectivity data (BI); conditions: Compound concentration 3.0 uM
[14] = target: Substance-P receptor (Homo sapiens) (UniProt P25103); test: NK1/HU Eurofins-Panlabs selectivity data (BI); conditions: Compound concentration 10.0 uM
Substance-P receptor (Homo sapiens), sequence (P25103 whole entry): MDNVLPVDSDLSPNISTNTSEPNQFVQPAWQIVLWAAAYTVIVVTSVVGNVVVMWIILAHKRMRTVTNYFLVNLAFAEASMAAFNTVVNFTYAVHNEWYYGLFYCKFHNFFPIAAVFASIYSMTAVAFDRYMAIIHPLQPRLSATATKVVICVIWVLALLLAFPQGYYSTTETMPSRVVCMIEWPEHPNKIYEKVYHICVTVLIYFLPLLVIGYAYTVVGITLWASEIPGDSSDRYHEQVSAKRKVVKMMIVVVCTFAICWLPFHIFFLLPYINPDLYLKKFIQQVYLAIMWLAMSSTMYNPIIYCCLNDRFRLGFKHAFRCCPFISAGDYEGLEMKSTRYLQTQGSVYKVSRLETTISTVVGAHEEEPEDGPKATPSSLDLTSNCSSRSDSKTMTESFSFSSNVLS

Caspase-3 (Homo sapiens) = Caspase-3 (Homo sapiens) (UniProt P42574); test: CASPASE-3 Cerep selectivity data (BI); conditions: Compound concentration 20.0 uM
Caspase-3 (Homo sapiens), sequence (P42574 29-175 limits assumed): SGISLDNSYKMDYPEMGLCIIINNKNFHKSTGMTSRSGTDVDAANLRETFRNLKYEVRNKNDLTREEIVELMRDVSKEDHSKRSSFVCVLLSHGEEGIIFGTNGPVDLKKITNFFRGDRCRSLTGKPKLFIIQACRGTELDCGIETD
Caspase-3 (Homo sapiens), sequence (P42574 176-277 limits assumed): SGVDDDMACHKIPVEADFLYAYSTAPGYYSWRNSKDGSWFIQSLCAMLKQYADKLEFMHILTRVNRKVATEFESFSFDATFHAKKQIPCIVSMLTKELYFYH

[15] = target: 3',5'-cyclic-AMP phosphodiesterase 4D (Homo sapiens) (UniProt Q08499); test: PDE4D2 Cerep selectivity data (BI); conditions: Compound concentration 20.0 uM
3',5'-cyclic-AMP phosphodiesterase 4D (Homo sapiens), sequence (Q08499 whole entry): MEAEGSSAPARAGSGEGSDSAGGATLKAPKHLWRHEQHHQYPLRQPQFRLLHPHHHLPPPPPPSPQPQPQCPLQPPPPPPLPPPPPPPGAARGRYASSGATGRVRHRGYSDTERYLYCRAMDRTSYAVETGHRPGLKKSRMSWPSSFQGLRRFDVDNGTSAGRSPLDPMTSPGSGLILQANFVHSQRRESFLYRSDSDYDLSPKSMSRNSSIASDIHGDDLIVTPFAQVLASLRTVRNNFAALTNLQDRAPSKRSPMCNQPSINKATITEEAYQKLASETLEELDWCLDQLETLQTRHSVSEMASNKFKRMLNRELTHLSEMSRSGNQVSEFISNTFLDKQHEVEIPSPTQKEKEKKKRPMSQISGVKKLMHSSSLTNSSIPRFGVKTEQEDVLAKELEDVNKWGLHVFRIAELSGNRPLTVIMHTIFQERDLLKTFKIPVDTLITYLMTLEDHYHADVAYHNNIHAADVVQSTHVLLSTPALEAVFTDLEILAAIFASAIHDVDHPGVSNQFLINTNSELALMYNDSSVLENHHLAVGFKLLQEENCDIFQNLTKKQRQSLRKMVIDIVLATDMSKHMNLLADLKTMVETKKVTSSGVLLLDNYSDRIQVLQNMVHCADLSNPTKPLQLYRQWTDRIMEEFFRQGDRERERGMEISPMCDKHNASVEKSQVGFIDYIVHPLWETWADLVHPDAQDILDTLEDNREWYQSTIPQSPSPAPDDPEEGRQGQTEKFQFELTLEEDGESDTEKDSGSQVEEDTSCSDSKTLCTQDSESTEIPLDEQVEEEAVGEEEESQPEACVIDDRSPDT

[16] = target: Calcium/calmodulin-dependent protein kinase type II subunit beta (Homo sapiens) (UniProt Q13554); test: CAMK2B Invitrogen selectivity data (BI); conditions: Compound concentration 3.0 uM
[17] = target: Calcium/calmodulin-dependent protein kinase type 1D (Homo sapiens) (UniProt Q8IU85); test: CAMK1D Invitrogen selectivity data (BI); conditions: Compound concentration 3.0 uM
Calcium/calmodulin-dependent protein kinase type 1D (Homo sapiens), sequence (Q8IU85 whole entry, looked up): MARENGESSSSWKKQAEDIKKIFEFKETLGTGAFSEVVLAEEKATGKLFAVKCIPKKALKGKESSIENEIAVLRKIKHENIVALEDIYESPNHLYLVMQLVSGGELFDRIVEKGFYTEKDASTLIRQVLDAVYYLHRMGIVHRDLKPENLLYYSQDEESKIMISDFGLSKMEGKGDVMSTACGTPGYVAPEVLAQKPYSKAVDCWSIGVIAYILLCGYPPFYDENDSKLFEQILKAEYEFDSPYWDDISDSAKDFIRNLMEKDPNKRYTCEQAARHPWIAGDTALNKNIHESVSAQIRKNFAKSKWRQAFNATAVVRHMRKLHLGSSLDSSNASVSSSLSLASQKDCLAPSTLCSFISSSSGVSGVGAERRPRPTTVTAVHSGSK

Measured: residual activity

Dual specificity tyrosine-phosphorylation-regulated kinase 3 (Homo sapiens), sequence (O43781 whole entry): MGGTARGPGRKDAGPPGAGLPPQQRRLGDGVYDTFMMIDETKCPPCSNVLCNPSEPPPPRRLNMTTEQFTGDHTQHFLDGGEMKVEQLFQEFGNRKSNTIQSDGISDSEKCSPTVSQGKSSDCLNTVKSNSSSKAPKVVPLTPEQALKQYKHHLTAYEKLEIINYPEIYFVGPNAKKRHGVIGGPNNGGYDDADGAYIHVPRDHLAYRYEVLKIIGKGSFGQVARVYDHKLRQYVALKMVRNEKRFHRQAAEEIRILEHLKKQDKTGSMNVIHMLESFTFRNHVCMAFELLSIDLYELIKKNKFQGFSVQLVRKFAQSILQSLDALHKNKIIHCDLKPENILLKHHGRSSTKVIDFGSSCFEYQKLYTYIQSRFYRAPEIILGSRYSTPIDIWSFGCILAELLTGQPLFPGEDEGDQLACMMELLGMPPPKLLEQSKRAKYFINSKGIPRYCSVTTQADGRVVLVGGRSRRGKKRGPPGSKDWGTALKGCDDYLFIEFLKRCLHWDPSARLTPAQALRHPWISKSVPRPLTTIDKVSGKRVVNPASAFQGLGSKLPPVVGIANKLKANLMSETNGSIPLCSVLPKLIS

CN(C)C(=O)Cn1cc(-c2nc([C@@](C)(c3ccc(-c4cnc(N)nc4)cc3)C3CC3)no2)cn1 [BI 665915]
inactive: [1] 102% | [2] 79% | [3] 141% | [4] 111% | [5] 103% | [6] 114% | [7] 99% | [8] 100% | [9] 94.5% | [10] 102% | [11] 102% | [12] 97.5% | [13] 96% | [14] 104% | Caspase-3 (Homo sapiens) 98% | [15] 82% | [16] 95% | [17] 96%
